Laboratory results taken from patent publication US20110218103A1, “Fluoroalkyl-substituted 2-amidobenzimidazoles” (BAYER CROPSCIENCE AG, priority 2010, published 2011).

Tests used:
Experiment in all cases: Drought stress test on crop plants, spray application in greenhouse, visual damage rating
Type in all cases: in vivo
Details in all cases: mean of three results
[1] = test system: Hordeum vulgare (HORVS)
Method: Seeds of monocotyledonous and dicotyledonous crop plants were placed in sandy loam in wood-fiber pots, covered with soil and cultivated in a greenhouse under good growth conditions. The test plants were treated at the early leaf stage (BBCH10-BBCH13). To ensure uniform water supply before commencement of stress, the potted plants were supplied with the maximum amount of water immediately beforehand by dam irrigation and, after application, transferred in plastic inserts in order to prevent subsequent, excessively rapid drying. The inventive compounds, formulated in the form of wettable powders (WP), wettable granules (WG), suspension concentrates (SC) or emulsion concentrates (EC), were sprayed onto the green parts of the plants as an aqueous suspension at an equivalent water application rate of 600 l/ha with addition of 0.2% wetting agent (agrotin). Substance application was followed immediately by stress treatment of the plants (cold or drought stress). For cold stress treatment, the plants were kept under the following controlled conditions: Drought stress was induced by gradual drying out under the following conditions: “day”: 14 hours with illumination at 26° C. “night”: 10 hours without illumination at 18° C. The duration of the respective stress phases was guided mainly by the state of the untreated, stressed control plants and thus varies from crop to crop. It was ended (by re-irrigating or transfer to a greenhouse with good growth conditions) as soon as irreversible damage is observed on the untreated, stressed control plants. In the case of dicotyledonous crops, for example oilseed rape and soya, the duration of the drought stress phase was between 3 and 5 days, in the case of monocotyledonous crops, for example wheat, barley or corn, between 6 and 10 days. The duration of the cold stress phase varied between 12 and 14 days. The end of the stress phase was followed by an approx. 5-7-day recovery phase, during which the plants were once again kept under good growth conditions in a greenhouse. In order to rule out any influence of the effects observed by any fungicidal action of the test compounds, it was additionally ensured that the tests proceed without fungal infection and without infection pressure. After the recovery phase had ended, the intensities of damage were rated visually compared to untreated, unstressed controls of the same age (in the case of drought stress) or the same growth stage (in the case of cold stress). The intensity of damage was first assessed as a percentage (100%=plants have died, 0%=like control plants). These values were then used to calculate the efficacy of the test compounds (=percentage reduction in the intensity of damage as a result of substance application) by the following formula: [formula] EF: efficacy (%) DVus: damage value of the untreated, stressed control DVts: damage value of the plants treated with test compound The tables below list mean values in each case from three results of the same test. Effects of selected compounds of the formula (I) under drought stress: HORVS=Hordeum vulgare

[2] = test system: Brassica napus (BRSNS)
Method: Seeds of monocotyledonous and dicotyledonous crop plants were placed in sandy loam in wood-fiber pots, covered with soil and cultivated in a greenhouse under good growth conditions. The test plants were treated at the early leaf stage (BBCH10-BBCH13). To ensure uniform water supply before commencement of stress, the potted plants were supplied with the maximum amount of water immediately beforehand by dam irrigation and, after application, transferred in plastic inserts in order to prevent subsequent, excessively rapid drying. The inventive compounds, formulated in the form of wettable powders (WP), wettable granules (WG), suspension concentrates (SC) or emulsion concentrates (EC), were sprayed onto the green parts of the plants as an aqueous suspension at an equivalent water application rate of 600 l/ha with addition of 0.2% wetting agent (agrotin). Substance application was followed immediately by stress treatment of the plants (cold or drought stress). For cold stress treatment, the plants were kept under the following controlled conditions: Drought stress was induced by gradual drying out under the following conditions: “day”: 14 hours with illumination at 26° C. “night”: 10 hours without illumination at 18° C. The duration of the respective stress phases was guided mainly by the state of the untreated, stressed control plants and thus varies from crop to crop. It was ended (by re-irrigating or transfer to a greenhouse with good growth conditions) as soon as irreversible damage is observed on the untreated, stressed control plants. In the case of dicotyledonous crops, for example oilseed rape and soya, the duration of the drought stress phase was between 3 and 5 days, in the case of monocotyledonous crops, for example wheat, barley or corn, between 6 and 10 days. The duration of the cold stress phase varied between 12 and 14 days. The end of the stress phase was followed by an approx. 5-7-day recovery phase, during which the plants were once again kept under good growth conditions in a greenhouse. In order to rule out any influence of the effects observed by any fungicidal action of the test compounds, it was additionally ensured that the tests proceed without fungal infection and without infection pressure. After the recovery phase had ended, the intensities of damage were rated visually compared to untreated, unstressed controls of the same age (in the case of drought stress) or the same growth stage (in the case of cold stress). The intensity of damage was first assessed as a percentage (100%=plants have died, 0%=like control plants). These values were then used to calculate the efficacy of the test compounds (=percentage reduction in the intensity of damage as a result of substance application) by the following formula: [formula] EF: efficacy (%) DVus: damage value of the untreated, stressed control DVts: damage value of the plants treated with test compound The tables below list mean values in each case from three results of the same test. Effects of selected compounds of the formula (I) under drought stress: BRSNS=Brassica napus

[3] = test system: Zea mays (ZEAMX)
Method: Seeds of monocotyledonous and dicotyledonous crop plants were placed in sandy loam in wood-fiber pots, covered with soil and cultivated in a greenhouse under good growth conditions. The test plants were treated at the early leaf stage (BBCH10-BBCH13). To ensure uniform water supply before commencement of stress, the potted plants were supplied with the maximum amount of water immediately beforehand by dam irrigation and, after application, transferred in plastic inserts in order to prevent subsequent, excessively rapid drying. The inventive compounds, formulated in the form of wettable powders (WP), wettable granules (WG), suspension concentrates (SC) or emulsion concentrates (EC), were sprayed onto the green parts of the plants as an aqueous suspension at an equivalent water application rate of 600 l/ha with addition of 0.2% wetting agent (agrotin). Substance application was followed immediately by stress treatment of the plants (cold or drought stress). For cold stress treatment, the plants were kept under the following controlled conditions: Drought stress was induced by gradual drying out under the following conditions: “day”: 14 hours with illumination at 26° C. “night”: 10 hours without illumination at 18° C. The duration of the respective stress phases was guided mainly by the state of the untreated, stressed control plants and thus varies from crop to crop. It was ended (by re-irrigating or transfer to a greenhouse with good growth conditions) as soon as irreversible damage is observed on the untreated, stressed control plants. In the case of dicotyledonous crops, for example oilseed rape and soya, the duration of the drought stress phase was between 3 and 5 days, in the case of monocotyledonous crops, for example wheat, barley or corn, between 6 and 10 days. The duration of the cold stress phase varied between 12 and 14 days. The end of the stress phase was followed by an approx. 5-7-day recovery phase, during which the plants were once again kept under good growth conditions in a greenhouse. In order to rule out any influence of the effects observed by any fungicidal action of the test compounds, it was additionally ensured that the tests proceed without fungal infection and without infection pressure. After the recovery phase had ended, the intensities of damage were rated visually compared to untreated, unstressed controls of the same age (in the case of drought stress) or the same growth stage (in the case of cold stress). The intensity of damage was first assessed as a percentage (100%=plants have died, 0%=like control plants). These values were then used to calculate the efficacy of the test compounds (=percentage reduction in the intensity of damage as a result of substance application) by the following formula: [formula] EF: efficacy (%) DVus: damage value of the untreated, stressed control DVts: damage value of the plants treated with test compound The tables below list mean values in each case from three results of the same test. Effects of selected compounds of the formula (I) under drought stress: ZEAMX=Zea mays

[4] = test system: Triticum aestivum (TRZAS)
Method: Seeds of monocotyledonous and dicotyledonous crop plants were placed in sandy loam in wood-fiber pots, covered with soil and cultivated in a greenhouse under good growth conditions. The test plants were treated at the early leaf stage (BBCH10-BBCH13). To ensure uniform water supply before commencement of stress, the potted plants were supplied with the maximum amount of water immediately beforehand by dam irrigation and, after application, transferred in plastic inserts in order to prevent subsequent, excessively rapid drying. The inventive compounds, formulated in the form of wettable powders (WP), wettable granules (WG), suspension concentrates (SC) or emulsion concentrates (EC), were sprayed onto the green parts of the plants as an aqueous suspension at an equivalent water application rate of 600 l/ha with addition of 0.2% wetting agent (agrotin). Substance application was followed immediately by stress treatment of the plants (cold or drought stress). For cold stress treatment, the plants were kept under the following controlled conditions: Drought stress was induced by gradual drying out under the following conditions: “day”: 14 hours with illumination at 26° C. “night”: 10 hours without illumination at 18° C. The duration of the respective stress phases was guided mainly by the state of the untreated, stressed control plants and thus varies from crop to crop. It was ended (by re-irrigating or transfer to a greenhouse with good growth conditions) as soon as irreversible damage is observed on the untreated, stressed control plants. In the case of dicotyledonous crops, for example oilseed rape and soya, the duration of the drought stress phase was between 3 and 5 days, in the case of monocotyledonous crops, for example wheat, barley or corn, between 6 and 10 days. The duration of the cold stress phase varied between 12 and 14 days. The end of the stress phase was followed by an approx. 5-7-day recovery phase, during which the plants were once again kept under good growth conditions in a greenhouse. In order to rule out any influence of the effects observed by any fungicidal action of the test compounds, it was additionally ensured that the tests proceed without fungal infection and without infection pressure. After the recovery phase had ended, the intensities of damage were rated visually compared to untreated, unstressed controls of the same age (in the case of drought stress) or the same growth stage (in the case of cold stress). The intensity of damage was first assessed as a percentage (100%=plants have died, 0%=like control plants). These values were then used to calculate the efficacy of the test compounds (=percentage reduction in the intensity of damage as a result of substance application) by the following formula: [formula] EF: efficacy (%) DVus: damage value of the untreated, stressed control DVts: damage value of the plants treated with test compound The tables below list mean values in each case from three results of the same test. Effects of selected compounds of the formula (I) under drought stress: TRZAS=Triticum aestivum

## NC(=O)c1cccc2[nH]c(C(F)(F)Cl)nc12 [1-1, 2-[chloro(difluoro)methyl]-1H-benzimidazole-4-carboxamide]
[1]; 100 g/ha
  EF (HORVS), efficacy = percentage reduction in the intensity of damage: >5%

## CCCCS(CCCC)=NC(=O)c1cccc2[nH]c(C(F)(F)F)nc12 [1-5, N-(dibutyl-lambda^4-sulfanylidene)-2-(trifluoromethyl)-1H-benzimidazole-4-carboxamide]
[2]; 25 g/ha
  EF (BRSNS), efficacy = percentage reduction in the intensity of damage: >5%
[3]; 50 g/ha
  EF (ZEAMX), efficacy = percentage reduction in the intensity of damage: >5%
[4]; 250 g/ha
  EF (TRZAS), efficacy = percentage reduction in the intensity of damage: >5%

## COC(F)(F)c1nc2c(C(N)=O)cccc2[nH]1 [1-6, 2-[difluoro(methoxy)methyl]-1H-benzimidazole-4-carboxamide]
[2]; 25 g/ha
  EF (BRSNS), efficacy = percentage reduction in the intensity of damage: >5%
[3]; 25 g/ha
  EF (ZEAMX), efficacy = percentage reduction in the intensity of damage: >5%
[4]; 25 g/ha
  EF (TRZAS), efficacy = percentage reduction in the intensity of damage: >5%

## NC(=O)c1cccc2[nH]c(C(F)C(F)(F)F)nc12 (stereo not drawn) [1-8]
[1]; 50 g/ha
  EF (HORVS), efficacy = percentage reduction in the intensity of damage: >5%
[2]; 50 g/ha
  EF (BRSNS), efficacy = percentage reduction in the intensity of damage: >5%
[3]; 25 g/ha
  EF (ZEAMX), efficacy = percentage reduction in the intensity of damage: >5%

## CC(C)NC(=O)c1cccc2[nH]c(C(F)(F)F)nc12 [1-21]
[1]; 25 g/ha
  EF (HORVS), efficacy = percentage reduction in the intensity of damage: >5%

## Cn1c(C(F)(F)F)nc2c(C(N)=O)cccc21 [1-27]
[1]; 100 g/ha
  EF (HORVS), efficacy = percentage reduction in the intensity of damage: >5%

## CCCCOC(F)(F)c1nc2c(C(N)=O)cccc2[nH]1 [1-50]
[2]; 25 g/ha
  EF (BRSNS), efficacy = percentage reduction in the intensity of damage: >5%
[3]; 250 g/ha
  EF (ZEAMX), efficacy = percentage reduction in the intensity of damage: >5%
[4]; 250 g/ha
  EF (TRZAS), efficacy = percentage reduction in the intensity of damage: >5%

## COCCOC(F)(F)c1nc2c(C(N)=O)cccc2[nH]1 [1-52]
[2]; 25 g/ha
  EF (BRSNS), efficacy = percentage reduction in the intensity of damage: >5%
[3]; 25 g/ha
  EF (ZEAMX), efficacy = percentage reduction in the intensity of damage: >5%
[4]; 25 g/ha
  EF (TRZAS), efficacy = percentage reduction in the intensity of damage: >5%

## CCCCn1c(C(F)(F)F)nc2c(C(N)=O)cccc21 [1-69]
[2]; 25 g/ha
  EF (BRSNS), efficacy = percentage reduction in the intensity of damage: >5%
[4]; 25 g/ha
  EF (TRZAS), efficacy = percentage reduction in the intensity of damage: >5%

## NC(=O)c1cccc2[nH]c(C(F)(F)OCC3CC3)nc12 [1-84]
[3]; 25 g/ha
  EF (ZEAMX), efficacy = percentage reduction in the intensity of damage: >5%

## C=CCCOC(F)(F)c1nc2c(C(N)=O)cccc2[nH]1 [1-89]
[2]; 250 g/ha
  EF (BRSNS), efficacy = percentage reduction in the intensity of damage: >5%
[3]; 250 g/ha
  EF (ZEAMX), efficacy = percentage reduction in the intensity of damage: >5%

## CCC(C)COC(F)(F)c1nc2c(C(N)=O)cccc2[nH]1 (stereo not drawn) [1-90]
[3]; 250 g/ha
  EF (ZEAMX), efficacy = percentage reduction in the intensity of damage: >5%
[4]; 250 g/ha
  EF (TRZAS), efficacy = percentage reduction in the intensity of damage: >5%

## NC(=O)c1cc(Cl)cc2[nH]c(C(F)F)nc12 [2-7]
[1]; 25 g/ha
  EF (HORVS), efficacy = percentage reduction in the intensity of damage: >5%
[2]; 25 g/ha
  EF (BRSNS), efficacy = percentage reduction in the intensity of damage: >5%
[4]; 25 g/ha
  EF (TRZAS), efficacy = percentage reduction in the intensity of damage: >5%

## Cc1cc(C(N)=O)c2nc(C(F)F)[nH]c2c1 [4-7]
[1]; 25 g/ha
  EF (HORVS), efficacy = percentage reduction in the intensity of damage: >5%
[2]; 25 g/ha
  EF (BRSNS), efficacy = percentage reduction in the intensity of damage: >5%
[4]; 25 g/ha
  EF (TRZAS), efficacy = percentage reduction in the intensity of damage: >5%

## NC(=O)c1cc(F)cc2[nH]c(C(F)C(F)(F)F)nc12 (stereo not drawn) [5-8]
[2]; 250 g/ha
  EF (BRSNS), efficacy = percentage reduction in the intensity of damage: >5%
[4]; 25 g/ha
  EF (TRZAS), efficacy = percentage reduction in the intensity of damage: >5%
